We go through one compound from patent publication US20090247495A1, “CU[…] AND USES THEREOF” (priority 2007, published 2009).

Experiment [1] concerns Human leukemia cell lines CCRF-CEM, K562, MOLT-4, RPMI-8226 and SR. In words: Cell proliferation assay using SRB, 5 human leukemia cell lines. The experiment is classed as cell-based. The note with it: 48 hours treatment, range over all leukemia cell lines. The method, then:
Human leukemia cell lines CCRF-CEM, K562, MOLT-4, RPMI-8226 and SR, purchased from the National Cancer Institute (NCI), were cultured in RPMI 1640 medium supplemented with 5%(v/v) fetal Bovine […] and 100 units/ml penicillin and 100 units/ml streptomycin in a humidified 5% CO2 atmosphere at 37° C. • 6.1.2 Reagents and Antibodies
All 5 human leukemia cells were screened by the cell proliferation assay using SRB to quantitative cell protein mass following cucurbitacin B treatment. The experiments were repeated in triplicate. Appropriate number of cells (depends on the doubling time of cells) were seeded into a 96-well tissue culture plate and growth in the indicated medium in presence of different dosages of cucurbitacin B for 2 days. Afterwards 25 μl 80%TCA reagent was added into each well to fix the cells and the plates were incubated at 4° C. at least for 1 hour. Then the plates were washed with tap water and air dried. […] The plates were air dried and dissolved by 100 μl 1 OmMTrizma-base solution and the absorbance was measured at 515 nm using FLUOstar OPTIMA equipment. • 6.1.4 Flow Cytometry for Apoptosis Analysis
Appropriate number of cell density were seeded into a 96 well culture plate and treated with different doses of cucurbitacin B for 2 days. The growth inhibition effects of cucurbitacin B on the cells were detected using SRB.

A further experiment relates to Stat3. In words: Western blot of Stat3 activation in K562 cells. It is filed as cell-based, human. The note with it: 50 μM. How it is done:
K562 leukemia cells were serum starved for 18 hours prior to cucurbitacin B treatment. The cells were incubated at a 75-mm culture flask filled with 10 ml growth medium (RPMI with 10% FBS and 1% PS) at the cell density of 1×10^5 cells/ml in the presence or absence of cucurbitacin B for various time intervals. The drug treatment were terminated by centrifugation at 1500 rpm for 5 minutes and the cells were rinsed twice with phosphate-buffered saline and lysed at 4° C. in a lysis buffer containing 50 mM Tris-HCl, pH7.5, […], 5 mM EDTA, 40 mM NaP2O7, 1% Triton X-100, 1 mM dithiothreitol, 200 μM Na3VO4, 100 μM phenylmethysufonyl fluoride, 2 μg/ml leupeptin, 4 μg/ml aprotinin and 0.7 μg/ml pepstatin. The insoluble protein lysate were removed by centrifugation for 10 minutes at 13000 rpm. Fifteen micrograms of protein lysate was resolved using SDS-polyacryamide gel electrophoresis (PAGE) (usually 8%-12% polyacrylamide gel) and then subjected to western blot anaylsis. Western blots were performed with antibodies specific for phosphorylated and total Stat3, c-Raf, Mek, and Erk. The blots were developed with the Enhanced Chemiluminescence Plus (ECL Plus) detection system (Amersham). • 6.1.7 GTPase Pull-Down Assay
15 μg cell lysate of each sample was separated in 8% SDS-PAGE followed by immuno-blotting with anti-Stat3 antibodies to detect the phosphorylated form of Stat3 as well as its total expression level.
Cells were serum starved for 18 hours followed by treated with 50 μM cucurbitacin B for 10 minutes, 30 minutes, 1 hour and 4 hours, respectively. 15 μg cell lysate of each sample was separated in 8% SDS-PAGE followed by immuno-blotting with anti-Stat3 antibodies to detect the phosphorylated form of Stat3 as well as its total expression level.
(In general: A western blot detects proteins with antibodies after separation by electrophoresis.)

The next experiment concerns Jak, Stat3 and c-raf. The experiment can be described thus: Western blot of phosphorylated Jak, Stat3 and c-raf in Panc-1 cells. It is filed as cell-based, human. The settings on record: IC50 dosage (0.8 uM).
For experiment [2], the system named is HepG2-resistant (HepG2-R). The experiment can be described thus: Hollow fiber assay, HepG2-resistant. The note with it: up to 14 days. The experiment is classed as in vivo, nude mice. The method, then: The hollow fiber assay (HFA) was developed by the NCI as a high-throughput, preliminary in vivo screening assay for the evaluation of anti-cancer agents. Human liver cancer cell lines HepG2 and HepG2-resistant (HepG2-R) were in vitro cultured inside hollow fibers for a short term (48 hours), followed by in vivo implantation at s.c. sites of the nude mice. Mice were treated with negative control (0.5% CMC), positive control (10 mg/kg 5-Fluorouracil) and cucurbitacin B (0.2 mg/kg) for up to 14 days. Then the fibers were excised and analyzed for cell viability by MTT assay. The efficacies of cucurbitacin B against HepG2 and HepG2-R were expressed as the percentage of the results obtained in the negative control group.

For another experiment, the system named is K562 cells. In words: Flow cytometry for apoptosis analysis (Annexin V / PI), K562. It is filed as cell-based, human. The settings on record: 80 nM, 48 hours. The method, then:
10^5/ml K562 cells were treated with cucurbitacin B in the presence of complete medium containing 10% FBS for 48 hours. The changes in cell morphology were visualized using Leica DMIL (Leica Microsystem). Cells were harvested and rinsed twice with ice-cold PBS (pH7.4) and a total 2.5×10^5 K562 cells were stained with 10 μl Annexin V and 10 μl propidium iodide in 100 μl 1×binding buffer for 15 minutes in dark and then subjected to apoptosis analysis with FACSCalibar Flow cytometer system (FACS Calibur BD Flow Cytometer). • 6.1.5 Flow Cytometry for Cell Cycle Analysis
Appropriate number of cell density were seeded into T-25 culture flask and treated with different doses of cucurbitacin B for 2 days. The apoptotic effects of cucurbitacin B on the cells were detected using Flow Cytometry analysis after stained with Anx.V and PI for 15 minutes. […] Cucuribitacin B induced apoptosis in a dose dependent manner, among them, 80 nM induced the highest apoptotic effect in K562 cells, with over 50% cells in apoptotic population and 10% cells in the necrotic population (late apoptotic and necrotic phase). The effect of cucurbitacin B on apoptosis and cell cycle profile in K562 cells were analyzed using flow cytometry, as depicted in FIG. 3.
In general terms: Flow cytometry measures light scatter and fluorescence of single cells or particles in a stream.

“Also recorded” adds a separate entry of the source.

Procedure for Jak, Stat3 and c-raf: The drug treatment was terminated and the cells were rinsed twice with phosphate-buffered saline and lysed at 4° C. in a lysis buffer containing 50 mM Tris-HCl, pH7.5, 100 mM NaCl, 5 mM EDTA, 40 mM NaP2O7, 1% Triton X-100, 1 mM dithiothreitol, 200 μM Na3VO4, 100 uM phenylmethysufonyl fluoride, 2 μg/ml leupeptin, 4 μg/ml aprotinin and 0.7 μg/ml pepstatin. The insoluble protein lysate were removed by centrifugation for 10 minutes at 12,000 rpm. Fifty micrograms of protein lysate was resolved using 10% SDS-polyacryamide gel electrophoresis (PAGE) and then subjected to western blot anaylsis. Western blots were performed with antibodies specific for phosphor- and Jak, Stat3 and c-raf proteins. […] The protein bands were then visualized with the Enhanced Chemiluminescence Plus (ECL Plus) detection system (Amersham).
The proteins activation was detected by western blot.
Cell lysate (50 μg) of each sample was separated in 10% SDS-PAGE followed by immuno-blotting with anti-jak1 anti-jak2, anti-jak3, anti-Stat3 and c-raf antibodies to detect the phosphorylated form of jak1, jak2, jak3, Stat3 and c-raf.

The GI50 is the concentration that inhibits growth by half. Higher therefore signals less potent growth inhibition. As for `CC(=O)OC(C)(C)/C=C/C(=O)[C@](C)(O)C1[C@H](O)C[C@@]2(C)C3CC=C4C(C[C@H](O)C(=O)C4(C)C)[C@]3(C)C(=O)C[C@]12C` (stereo partly shown) [cucurbitacin B], the GI50 in experiment [1] was in the range of 0.0156 to 0.0353 µM. Moreover, the “inhibition on Stat3 activation” value in the experiment with Stat3 (10 minutes to 30 minutes) is recorded as “No significant change”. Also, the “inhibition effect on Stat3 activation” value in the experiment with Stat3 (1 hour to 4 hours) was “gradually increased at 1 hours and peak at 4 hours; also recorded: inhibited Stat3 phosphorylation”. Also, in the experiment with Stat3 (4 hours), the “Stat3 activation (phosphorylated Stat3)” value is listed as “significant inhibited”. For the same compound, the “Jak and c-raf activation” value with Jak, Stat3 and c-raf (4 hours) was “inhibited significantly”. Also, the Stat3 activation entry in the experiment with Jak, Stat3 and c-raf (24 hours) was “inhibited significantly”. For the same compound, in experiment [2] (0.2 mg/kg p.o.), the “Cell growth rate compared with the negative control group” value is recorded as “about 75%”. Further, in experiment [2] (0.2 mg/kg, i.p., s.c. and p.o.), the “cell growth in hollow fibers” value is on record as “potently inhibited”. In the experiment with K562 cells, the “cells in apoptotic population” value is given as “over 50%”; the “cells in the necrotic population (late apoptotic and necrotic phase)” value is 10%.
